Data on 26 molecules can be found in ChEMBL document CHEMBL4477225, “Development of a cell viability assay to assess drug metabolite structure-toxicity relationships” (Bioorg Med Chem Lett, 2016).

Structures are written as SMILES.

Holding throughout (settings): recombinant enzyme
For data set [1], the target named is T1, Cytochrome P450 3A4 (Homo sapiens, UniProt P08684). Kind of data set: Drug activation in human Hep3B cells assessed as human CYP3A4-mediated drug metabolism-induced cytotoxicity measured as decrease in cell viability at 131.8 uM pre-incubated with BSO for 18 hrs followed by incubation with compound for 3 hrs in presence of NADPH measured after 24 hrs in absence of compound, CYP3A4 and NADPH by cell titer-glo luminescence assay relative to BSO alone. It is filed as ADME, cell-based.
T1 sequence (P08684 whole entry): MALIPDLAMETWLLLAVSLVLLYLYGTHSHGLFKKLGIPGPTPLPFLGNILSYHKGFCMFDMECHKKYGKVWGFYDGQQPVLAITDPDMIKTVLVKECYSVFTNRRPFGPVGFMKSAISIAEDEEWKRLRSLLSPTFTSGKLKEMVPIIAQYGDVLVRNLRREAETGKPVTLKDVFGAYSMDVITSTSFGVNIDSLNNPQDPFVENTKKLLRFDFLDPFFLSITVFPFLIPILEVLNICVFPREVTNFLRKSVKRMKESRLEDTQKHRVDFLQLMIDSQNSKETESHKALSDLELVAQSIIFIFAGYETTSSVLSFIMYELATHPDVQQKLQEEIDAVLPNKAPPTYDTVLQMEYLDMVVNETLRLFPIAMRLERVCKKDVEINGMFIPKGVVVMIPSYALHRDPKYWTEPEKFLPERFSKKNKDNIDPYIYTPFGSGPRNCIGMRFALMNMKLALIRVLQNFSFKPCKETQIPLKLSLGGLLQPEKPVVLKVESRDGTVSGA

The target of data set [2] is T2, Cytochrome P450 2D6 (Homo sapiens, UniProt P10635). Description: Drug activation in human Hep3B cells assessed as human CYP2D6-mediated drug metabolism-induced cytotoxicity measured as decrease in cell viability at 132.2 uM pre-incubated with BSO for 18 hrs followed by incubation with compound for 3 hrs in presence of NADPH measured after 24 hrs in absence of compound, CYP3A4 and NADPH by cell titer-glo luminescence assay relative to BSO alone. It is filed as ADME, cell-based.
T2 sequence (P10635 whole entry): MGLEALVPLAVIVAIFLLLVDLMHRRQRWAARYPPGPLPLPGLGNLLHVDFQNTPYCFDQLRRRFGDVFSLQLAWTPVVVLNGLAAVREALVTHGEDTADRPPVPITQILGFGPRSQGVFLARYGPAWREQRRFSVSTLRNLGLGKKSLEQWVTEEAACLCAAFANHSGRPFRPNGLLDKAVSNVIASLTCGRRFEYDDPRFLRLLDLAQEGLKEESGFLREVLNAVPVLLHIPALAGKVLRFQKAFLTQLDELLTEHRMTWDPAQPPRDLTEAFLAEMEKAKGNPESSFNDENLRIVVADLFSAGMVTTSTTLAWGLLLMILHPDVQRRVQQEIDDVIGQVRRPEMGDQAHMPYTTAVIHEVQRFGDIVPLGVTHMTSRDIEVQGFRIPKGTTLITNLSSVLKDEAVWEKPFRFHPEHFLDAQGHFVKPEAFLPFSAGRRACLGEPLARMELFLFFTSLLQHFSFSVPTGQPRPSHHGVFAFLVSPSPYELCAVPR

Data set [3] concerns the target T3, Cytochrome P450 2C9 (Homo sapiens, UniProt P11712). Description: Drug activation in human Hep3B cells assessed as human CYP2C9-mediated drug metabolism-induced cytotoxicity measured as decrease in cell viability at 139.9 uM pre-incubated with BSO for 18 hrs followed by incubation with compound for 3 hrs in presence of NADPH measured after 24 hrs in absence of compound, CYP3A4 and NADPH by cell titer-glo luminescence assay relative to BSO alone. Type of data set: ADME, cell-based.

Data set [4] deals with T1, Cytochrome P450 3A4. Kind of data set: Drug activation in human Hep3B cells assessed as human CYP3A4-mediated drug metabolism-induced cytotoxicity measured as decrease in cell viability at 36.8 uM pre-incubated with BSO for 18 hrs followed by incubation with compound for 3 hrs in presence of NADPH measured after 24 hrs in absence of compound, CYP3A4 and NADPH by cell titer-glo luminescence assay relative to BSO alone. It is filed as ADME, cell-based.

In data set [5] the target is T2, Cytochrome P450 2D6. Description: Drug activation in human Hep3B cells assessed as human CYP2D6-mediated drug metabolism-induced cytotoxicity measured as decrease in cell viability at 194 uM pre-incubated with BSO for 18 hrs followed by incubation with compound for 3 hrs in presence of NADPH measured after 24 hrs in absence of compound, CYP3A4 and NADPH by cell titer-glo luminescence assay relative to BSO alone. It is filed as ADME, cell-based.

Data set [6] deals with T3, Cytochrome P450 2C9. Description: Drug activation in human Hep3B cells assessed as human CYP2C9-mediated drug metabolism-induced cytotoxicity measured as decrease in cell viability at 300 uM pre-incubated with BSO for 18 hrs followed by incubation with compound for 3 hrs in presence of NADPH measured after 24 hrs in absence of compound, CYP3A4 and NADPH by cell titer-glo luminescence assay relative to BSO alone.

In data set [7] the target is T1, Cytochrome P450 3A4. Kind of data set: Drug activation in human Hep3B cells assessed as human CYP3A4-mediated drug metabolism-induced cytotoxicity measured as decrease in cell viability at 6.5 uM pre-incubated with BSO for 18 hrs followed by incubation with compound for 3 hrs in presence of NADPH measured after 24 hrs in absence of compound, CYP3A4 and NADPH by cell titer-glo luminescence assay relative to BSO alone. It is filed as ADME, cell-based.

The target in data set [8] is T2, Cytochrome P450 2D6. Kind of data set: Drug activation in human Hep3B cells assessed as human CYP2D6-mediated drug metabolism-induced cytotoxicity measured as decrease in cell viability at 300 uM pre-incubated with BSO for 18 hrs followed by incubation with compound for 3 hrs in presence of NADPH measured after 24 hrs in absence of compound, CYP3A4 and NADPH by cell titer-glo luminescence assay relative to BSO alone.

The target in data set [9] is T1, Cytochrome P450 3A4. Kind of data set: Drug activation in human Hep3B cells assessed as human CYP3A4-mediated drug metabolism-induced cytotoxicity measured as decrease in cell viability at 300 uM pre-incubated with BSO for 18 hrs followed by incubation with compound for 3 hrs in presence of NADPH measured after 24 hrs in absence of compound, CYP3A4 and NADPH by cell titer-glo luminescence assay relative to BSO alone.

The target of data set [10] is T1, Cytochrome P450 3A4. Description: Drug activation in human Hep3B cells assessed as human CYP3A4-mediated drug metabolism-induced cytotoxicity measured as decrease in cell viability at 69.6 uM pre-incubated with BSO for 18 hrs followed by incubation with compound for 3 hrs in presence of NADPH measured after 24 hrs in absence of compound, CYP3A4 and NADPH by cell titer-glo luminescence assay relative to BSO alone. It is filed as ADME, cell-based.

In data set [11] the target is T2, Cytochrome P450 2D6. Description: Drug activation in human Hep3B cells assessed as human CYP2D6-mediated drug metabolism-induced cytotoxicity measured as decrease in cell viability at 17.6 uM pre-incubated with BSO for 18 hrs followed by incubation with compound for 3 hrs in presence of NADPH measured after 24 hrs in absence of compound, CYP3A4 and NADPH by cell titer-glo luminescence assay relative to BSO alone. Type of data set: ADME, cell-based.

Data set [12] concerns the target T1, Cytochrome P450 3A4. Kind of data set: Drug activation in human Hep3B cells assessed as human CYP3A4-mediated drug metabolism-induced cytotoxicity measured as decrease in cell viability at 90.1 uM pre-incubated with BSO for 18 hrs followed by incubation with compound for 3 hrs in presence of NADPH measured after 24 hrs in absence of compound, CYP3A4 and NADPH by cell titer-glo luminescence assay relative to BSO alone. Type of data set: ADME, cell-based.

Data set [13] concerns the target T2, Cytochrome P450 2D6. Description: Drug activation in human Hep3B cells assessed as human CYP2D6-mediated drug metabolism-induced cytotoxicity measured as decrease in cell viability at 78.6 uM pre-incubated with BSO for 18 hrs followed by incubation with compound for 3 hrs in presence of NADPH measured after 24 hrs in absence of compound, CYP3A4 and NADPH by cell titer-glo luminescence assay relative to BSO alone. It is filed as ADME, cell-based.

For data set [14], the target named is T1, Cytochrome P450 3A4. Kind of data set: Drug activation in human Hep3B cells assessed as human CYP3A4-mediated drug metabolism-induced cytotoxicity measured as decrease in cell viability at 25.3 uM pre-incubated with BSO for 18 hrs followed by incubation with compound for 3 hrs in presence of NADPH measured after 24 hrs in absence of compound, CYP3A4 and NADPH by cell titer-glo luminescence assay relative to BSO alone. Type of data set: ADME, cell-based.

Data set [15] addresses T1, Cytochrome P450 3A4. Description: Drug activation in human Hep3B cells assessed as human CYP3A4-mediated drug metabolism-induced cytotoxicity measured as decrease in cell viability at 22.2 uM pre-incubated with BSO for 18 hrs followed by incubation with compound for 3 hrs in presence of NADPH measured after 24 hrs in absence of compound, CYP3A4 and NADPH by cell titer-glo luminescence assay relative to BSO alone. It is filed as ADME, cell-based.

The target in data set [16] is T2, Cytochrome P450 2D6. Kind of data set: Drug activation in human Hep3B cells assessed as human CYP2D6-mediated drug metabolism-induced cytotoxicity measured as decrease in cell viability at 5.8 uM pre-incubated with BSO for 18 hrs followed by incubation with compound for 3 hrs in presence of NADPH measured after 24 hrs in absence of compound, CYP3A4 and NADPH by cell titer-glo luminescence assay relative to BSO alone. It is filed as ADME, cell-based.

Data set [17] concerns the target T1, Cytochrome P450 3A4. Description: Drug activation in human Hep3B cells assessed as human CYP3A4-mediated drug metabolism-induced cytotoxicity measured as decrease in cell viability at 56.4 uM pre-incubated with BSO for 18 hrs followed by incubation with compound for 3 hrs in presence of NADPH measured after 24 hrs in absence of compound, CYP3A4 and NADPH by cell titer-glo luminescence assay relative to BSO alone. It is filed as ADME, cell-based.

Data set [18] deals with T2, Cytochrome P450 2D6. Description: Drug activation in human Hep3B cells assessed as human CYP2D6-mediated drug metabolism-induced cytotoxicity measured as decrease in cell viability at 65.4 uM pre-incubated with BSO for 18 hrs followed by incubation with compound for 3 hrs in presence of NADPH measured after 24 hrs in absence of compound, CYP3A4 and NADPH by cell titer-glo luminescence assay relative to BSO alone. It is filed as ADME, cell-based.

T3 sequence (P11712 whole entry): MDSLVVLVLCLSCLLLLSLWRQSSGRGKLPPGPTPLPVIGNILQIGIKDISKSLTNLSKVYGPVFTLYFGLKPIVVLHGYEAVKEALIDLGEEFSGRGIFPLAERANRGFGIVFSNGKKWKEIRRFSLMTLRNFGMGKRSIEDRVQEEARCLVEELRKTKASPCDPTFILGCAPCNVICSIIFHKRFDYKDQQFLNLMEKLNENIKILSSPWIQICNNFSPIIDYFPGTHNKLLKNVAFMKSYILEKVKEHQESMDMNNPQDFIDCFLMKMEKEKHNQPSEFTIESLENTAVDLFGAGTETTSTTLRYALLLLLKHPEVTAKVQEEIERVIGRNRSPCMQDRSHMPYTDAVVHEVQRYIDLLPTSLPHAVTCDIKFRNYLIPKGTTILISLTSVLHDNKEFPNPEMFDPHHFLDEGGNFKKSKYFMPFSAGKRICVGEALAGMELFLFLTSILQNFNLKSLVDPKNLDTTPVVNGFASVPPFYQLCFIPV

With `CNCCCN1c2ccccc2CCc2ccccc21` [DESIPRAMINE], the “fold change (FC)” value in data set [1], in [2] and in data set [3] was 0.7 in each case.

Take `CC(C)OC(=O)C(C)(C)Oc1ccc(C(=O)c2ccc(Cl)cc2)cc1` [FENOFIBRATE]: the “fold change (FC)” value in data set [4] is 2.9; in data set [5], 0.5; in data set [3], 0.8.

Turning to `CC(CCc1ccccc1)NCC(O)c1ccc(O)c(C(N)=O)c1` (stereo not given) [LABETALOL], the FC in [6] and in [8] was 1 in each case. Further, the “fold change (FC)” value in data set [7] was determined as 46.

In the case of `CN(C)c1ccc(O)c2c1C[C@H]1C[C@H]3[C@H](N(C)C)C(O)=C(C(N)=O)C(=O)[C@@]3(O)C(O)=C1C2=O` [MINOCYCLINE], the FC in data set [6], in data set [9] and in [8] was 1 throughout.

On to `Cc1ccnc2c1NC(=O)c1cccnc1N2C1CC1` [NEVIRAPINE], for which the FC in data set [6], in [9] and in data set [8] was 1 each time.

For `CNC(=C[N+](=O)[O-])NCCSCc1csc(CN(C)C)n1` [NIZATIDINE], the FC in data set [6], in data set [9] and in data set [8] was 1 each time.

For `CN1Cc2c(N)cccc2C(c2ccccc2)C1` (stereo not given) [NOMIFENSINE], the FC in data set [6], in [9] and in [8] was 0.3 throughout.

For the molecule `CCCCCCCCCCC[C@@H](C[C@@H]1OC(=O)[C@H]1CCCCCC)OC(=O)[C@H](CC(C)C)NC=O` [ORLISTAT], the FC in data set [6], in data set [9] and in data set [8] was 1 each time.

For `CCOC(=O)C1=C[C@@H](OC(CC)CC)[C@H](NC(C)=O)[C@@H](N)C1` [OSELTAMIVIR], the FC in data set [6], in [9] and in data set [8] was 1 in each case.

With `Cl.Nc1ccc(/N=N/c2ccccc2)c(N)n1` [PHENAZOPYRIDINE HYDROCHLORIDE], in data set [6], the FC was determined as 1. In addition, the “fold change (FC)” value stood at 4.3 in [10] and 17 in data set [11].

In the case of `CCc1ccc(CCOc2ccc(CC3SC(=O)NC3=O)cc2)nc1` (stereo not given) [PIOGLITAZONE], the FC in data set [6], in data set [9] and in data set [8] was 1 each time.

For `CC[C@H](C)C(=O)O[C@H]1C[C@H](O)C=C2C=C[C@H](C)[C@H](CC[C@@H](O)C[C@@H](O)CC(=O)O)[C@H]21` [PRAVASTATIN], the FC in data set [6], in data set [9] and in data set [8] was 1 in each case.

As to `CCC1(c2ccccc2)C(=O)NCNC1=O` [PRIMIDONE], the FC in data set [6], in data set [9] and in [8] was 1 throughout.

Turning to `NC(=O)c1cnccn1` [PYRAZINAMIDE], the FC in data set [6], in data set [9] and in data set [8] was 1 in each case.

Consider `CNC(=C[N+](=O)[O-])NCCSCc1ccc(CN(C)C)o1` [RANITIDINE], for which the FC in [6] is 1. Further, the “fold change (FC)” value turned out to be 3.3 in data set [12] and 3.8 in data set [13].

For the molecule `Cc1cn([C@H]2C=C[C@@H](CO)O2)c(=O)[nH]c1=O` [STAVUDINE], the FC in data set [6], in data set [9] and in data set [8] was 1 each time.

Consider `[H]/N=C(/N)N[C@H]1[C@H](O)[C@@H](O)[C@H](O[C@@H]2O[C@@H](C)[C@](O)(C=O)[C@H]2O[C@@H]2O[C@@H](CO)[C@H](O)[C@@H](O)[C@@H]2NC)[C@@H](N/C(N)=N\[H])[C@@H]1O` [STREPTOMYCIN], for which the FC in [6], in [9] and in [8] was 1 each time.

On to `CC/C(=C(\c1ccccc1)c1ccc(OCCN(C)C)cc1)c1ccccc1` [TAMOXIFEN], for which, in data set [14], the “fold change (FC)” value came to 0.8.

For `Cc1nc(C)c2c(n1)N(Cc1ccc(-c3ccccc3-c3nnn[nH]3)cc1)C(=O)CC2` [TASOSARTAN], the FC in data set [6] came to 1. For the same molecule, the “fold change (FC)” value came to 13.5 in [15] and 52 in data set [16].

For the molecule `CN(C)[C@@H]1C(O)=C(C(N)=O)C(=O)[C@@]2(O)C(O)=C3C(=O)c4c(O)cccc4[C@@](C)(O)[C@H]3C[C@@H]12` [TETRACYCLINE], the “fold change (FC)” value in data set [17] worked out at 2.9; in [18], 2.5.

In the case of `Nc1nc2nc[nH]c2c(=S)[nH]1` [THIOGUANINE], the FC in [6], in data set [9] and in data set [8] was 1 in each case.

For the molecule `Cc1ccc(C(=O)c2cc(O)c(O)c([N+](=O)[O-])c2)cc1` [TOLCAPONE], the FC in [6], in data set [9] and in [8] was 1 throughout.

On to `CCCC(CCC)C(=O)O` [VALPROIC ACID], for which the FC in data set [6], in data set [9] and in data set [8] was 1 in each case.

Consider `CC(=O)CC(c1ccccc1)c1c(O)c2ccccc2oc1=O` (stereo not given) [WARFARIN], for which the FC in data set [6], in data set [9] and in data set [8] was 1 throughout.

With `Nc1ccn([C@H]2CC[C@@H](CO)O2)c(=O)n1` [ZALCITABINE], the FC in data set [6], in data set [9] and in data set [8] was 1 in each case.

On to `Cc1cn([C@H]2C[C@H](N=[N+]=[N-])[C@@H](CO)O2)c(=O)[nH]c1=O` [ZIDOVUDINE], for which the FC in [6], in data set [9] and in [8] was 1 throughout.
